The values that follow come from US11180494B2, “Substituted amino acids as integrin inhibitors” (Pliant Therapeutics, Inc., priority 2018, dated 2021).

Molecules are shown by their SMILES.

human integrin αvβ6, sequence (P06756 31-992): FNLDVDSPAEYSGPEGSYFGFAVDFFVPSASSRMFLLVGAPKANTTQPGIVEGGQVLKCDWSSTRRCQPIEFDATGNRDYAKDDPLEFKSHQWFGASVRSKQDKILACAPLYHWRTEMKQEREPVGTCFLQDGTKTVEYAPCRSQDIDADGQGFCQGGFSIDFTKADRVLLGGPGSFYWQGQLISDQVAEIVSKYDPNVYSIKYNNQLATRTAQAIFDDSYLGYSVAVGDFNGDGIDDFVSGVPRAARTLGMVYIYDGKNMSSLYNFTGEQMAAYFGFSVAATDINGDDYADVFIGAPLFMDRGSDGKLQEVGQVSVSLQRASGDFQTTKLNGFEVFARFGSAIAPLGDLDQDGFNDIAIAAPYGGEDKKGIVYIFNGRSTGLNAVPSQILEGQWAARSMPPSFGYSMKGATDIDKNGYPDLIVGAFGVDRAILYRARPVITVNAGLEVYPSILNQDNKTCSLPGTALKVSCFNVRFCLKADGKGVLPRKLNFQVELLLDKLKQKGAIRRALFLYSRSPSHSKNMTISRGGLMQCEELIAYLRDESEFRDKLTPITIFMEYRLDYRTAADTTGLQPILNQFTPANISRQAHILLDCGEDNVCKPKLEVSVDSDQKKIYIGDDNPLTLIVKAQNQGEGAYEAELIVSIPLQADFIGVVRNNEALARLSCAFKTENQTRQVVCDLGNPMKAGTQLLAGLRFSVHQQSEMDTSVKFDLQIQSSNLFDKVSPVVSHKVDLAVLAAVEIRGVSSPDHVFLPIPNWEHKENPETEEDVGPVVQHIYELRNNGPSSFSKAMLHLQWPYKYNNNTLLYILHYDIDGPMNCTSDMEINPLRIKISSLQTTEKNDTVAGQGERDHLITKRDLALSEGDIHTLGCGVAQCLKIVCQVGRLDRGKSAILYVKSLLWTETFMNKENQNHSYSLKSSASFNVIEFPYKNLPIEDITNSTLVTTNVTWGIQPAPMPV
human integrin αvβ6, sequence (P18564 22-707): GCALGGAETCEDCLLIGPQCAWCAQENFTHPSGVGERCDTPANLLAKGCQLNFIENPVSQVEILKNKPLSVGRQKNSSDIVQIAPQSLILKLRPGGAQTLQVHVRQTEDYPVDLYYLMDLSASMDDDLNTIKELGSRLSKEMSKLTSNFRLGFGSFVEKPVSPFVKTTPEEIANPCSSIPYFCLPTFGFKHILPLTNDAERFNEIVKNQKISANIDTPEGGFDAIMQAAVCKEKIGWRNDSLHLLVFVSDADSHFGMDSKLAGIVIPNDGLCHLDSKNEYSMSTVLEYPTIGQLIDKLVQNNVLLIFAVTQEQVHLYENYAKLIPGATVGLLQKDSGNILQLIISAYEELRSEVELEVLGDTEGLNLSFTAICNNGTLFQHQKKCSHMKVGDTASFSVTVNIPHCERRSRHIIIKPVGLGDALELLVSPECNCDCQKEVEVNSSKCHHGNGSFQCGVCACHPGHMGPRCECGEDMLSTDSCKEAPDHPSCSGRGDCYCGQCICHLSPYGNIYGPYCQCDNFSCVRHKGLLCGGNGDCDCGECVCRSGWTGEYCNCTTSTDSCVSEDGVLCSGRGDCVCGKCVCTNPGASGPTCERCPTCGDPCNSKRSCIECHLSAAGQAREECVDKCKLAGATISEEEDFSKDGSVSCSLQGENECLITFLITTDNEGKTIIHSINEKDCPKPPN

This assay addresses human integrin αvβ6 (Homo sapiens (Human), UniProt P06756+P18564). The experiment in a line: Proximity-based integrin receptor binding assay (ALPHASCREEN) for inhibitor potency. Conditions: inhibition of binding of TGF-b1 LAP to human integrin αvβ6; values given in ranges. The essentials: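 AlphaScreen: integrin, compound, TGF-b1 LAP, biotinylated anti-LAP antibody and acceptor beads incubated 2 hours, then streptavidin donor beads 30 minutes, at room temperature in 50 mM Tris-HCl pH 7.5, 0.1% BSA, 1 mM CaCl2 and MgCl2. Excitation 680 nm, emission 520-620 nm; IC50 by four-parameter logistic fit.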
Background: Bead proximity is the source of the signal in Alpha formats.
As a reminder, the IC50 is the point on the concentration scale where inhibition reaches its midpoint. With `C[C@H](CNC(=O)OC(C)(C)C)OC(=O)N[C@@H](CCO[C@H]1C[C@H](CCc2ccc3c(n2)NCCC3)C1)C(=O)O` [Compound 153, N—((((R)-1-((tert-butoxycarbonyl)amino)propan-2-yl)oxy)carbonyl)-O-(trans-3-(2-(5,6,7,8-tetrahydro-1,8-naphthyridin-2-yl)ethyl)cyclobutyl)homoserine], the IC50 is less than 50 nM.

Take `CC(=O)NC[C@@H](C)OC(=O)N[C@@H](CCO[C@H]1C[C@H](CCc2ccc3c(n2)NCCC3)C1)C(=O)O` [Compound 154, N—((((R)-1-acetamidopropan-2-yl)oxy)carbonyl)-O-(trans-3-(2-(5,6,7,8-tetrahydro-1,8-naphthyridin-2-yl)ethyl)cyclobutyl)homoserine]: the IC50 fell in the range of 250 to 1000 nM.

On to `CC(C)(C)OC(=O)N1CC(OC(=O)N[C@@H](CCO[C@H]2C[C@H](CCc3ccc4c(n3)NCCC4)C2)C(=O)O)(c2cccc(Cl)c2)C1` [Compound 157, N-(((1-(tert-butoxycarbonyl)-3-(3-chlorophenyl)azetidin-3-yl)oxy)carbonyl)-O-(trans-3-(2-(5,6,7,8-tetrahydro-1,8-naphthyridin-2-yl)ethyl)cyclobutyl)homoserine], for which the IC50 was less than 50 nM.

As for `CC(C)c1ccc(C2(OC(=O)N[C@@H](CCO[C@H]3C[C@H](CCc4ccc5c(n4)NCCC5)C3)C(=O)O)CN(C(=O)OC(C)(C)C)C2)cc1` [Compound 158, N-(((1-(tert-butoxycarbonyl)-3-(4-isopropylphenyl)azetidin-3-yl)oxy)carbonyl)-O-(trans-3-(2-(5,6,7,8-tetrahydro-1,8-naphthyridin-2-yl)ethyl)cyclobutyl)homoserine], the IC50 is less than 50 nM.

Turning to `CC(C)(C)OC(=O)N1CC(C#Cc2ccccc2)(OC(=O)N[C@@H](CCO[C@H]2C[C@H](CCc3ccc4c(n3)NCCC4)C2)C(=O)O)C1` [Compound 159, N-(((1-(tert-butoxycarbonyl)-3-(phenylethynyl)azetidin-3-yl)oxy)carbonyl)-O-(trans-3-(2-(5,6,7,8-tetrahydro-1,8-naphthyridin-2-yl)ethyl)cyclobutyl)homoserine], the IC50 was less than 50 nM.

In the case of `CC(C)(C)OC(=O)N1CCC(C(=O)N[C@@H](CCO[C@H]2C[C@H](CCc3ccc4c(n3)NCCC4)C2)C(=O)O)CC1` [Compound 160, N-(1-(tert-butoxycarbonyl)piperidine-4-carbonyl)-O-(trans-3-(2-(5,6,7,8-tetrahydro-1,8-naphthyridin-2-yl)ethyl)cyclobutyl)homoserine], the IC50 lay in the range of 50 to 250 nM.

On to `O=C(NC(CCO[C@H]1C[C@H](CCc2ccc3c(n2)NCCC3)C1)C(=O)O)C1CCCC(F)(F)C1` (stereo partly drawn) [Compound 161, N-(3,3-difluorocyclohexane-1-carbonyl)-O-(trans-3-(2-(5,6,7,8-tetrahydro-1,8-naphthyridin-2-yl)ethyl)cyclobutyl)homoserine], for which the IC50 is less than 50 nM.

Consider `CC1(C(=O)N[C@@H](CCO[C@H]2C[C@H](CCc3ccc4c(n3)NCCC4)C2)C(=O)O)CCOCC1` [Compound 164, N-(4-methyltetrahydro-2H-pyran-4-carbonyl)-O-(trans-3-(2-(5,6,7,8-tetrahydro-1,8-naphthyridin-2-yl)ethyl)cyclobutyl)homoserine], for which the IC50 was less than 50 nM.

In the case of `CC(C)(C(=O)N[C@@H](CCO[C@H]1C[C@H](CCc2ccc3c(n2)NCCC3)C1)C(=O)O)C1CCCCC1` [Compound 165, N-(2-cyclohexyl-2-methylpropanoyl)-O-(trans-3-(2-(5,6,7,8-tetrahydro-1,8-naphthyridin-2-yl)ethyl)cyclobutyl)homoserine], the IC50 is less than 50 nM.

For the compound `O=C(N[C@@H](CCO[C@H]1C[C@H](CCc2ccc3c(n2)NCCC3)C1)C(=O)O)c1ccccc1-c1ccccn1` [Compound 166, N-(2-(pyridin-2-yl)benzoyl)-O-(trans-3-(2-(5,6,7,8-tetrahydro-1,8-naphthyridin-2-yl)ethyl)cyclobutyl)homoserine], the IC50 fell in the range of 50 to 250 nM.

For `O=C(N[C@@H](CCO[C@H]1C[C@H](CCc2ccc3c(n2)NCCC3)C1)C(=O)O)c1ccccc1N1CCOCC1` [Compound 168, N-(2-morpholinobenzoyl)-O-(trans-3-(2-(5,6,7,8-tetrahydro-1,8-naphthyridin-2-yl)ethyl)cyclobutyl)homoserine], the IC50 was in the range of 50 to 250 nM.

Turning to `CCC(CC)(C(=O)N[C@@H](CCO[C@H]1C[C@H](CCc2ccc3c(n2)NCCC3)C1)C(=O)O)c1ccccc1` [Compound 169, N-(2-ethyl-2-phenylbutanoyl)-O-(trans-3-(2-(5,6,7,8-tetrahydro-1,8-naphthyridin-2-yl)ethyl)cyclobutyl)homoserine], the IC50 was 50 to 250 nM.

For `N#CC1(C(=O)N[C@@H](CCO[C@H]2C[C@H](CCc3ccc4c(n3)NCCC4)C2)C(=O)O)CCOCC1` [Compound 171, N-(4-cyanotetrahydro-2H-pyran-4-carbonyl)-O-(trans-3-(2-(5,6,7,8-tetrahydro-1,8-naphthyridin-2-yl)ethyl)cyclobutyl)homoserine], the IC50 was less than 50 nM.

As for `CC(C)(C)OC(=O)N1CC(C)(C(=O)N[C@@H](CCO[C@H]2C[C@H](CCc3ccc4c(n3)NCCC4)C2)C(=O)O)C1` [Compound 172, N-(1-(tert-butoxycarbonyl)-3-methylazetidine-3-carbonyl)-O-(trans-3-(2-(5,6,7,8-tetrahydro-1,8-naphthyridin-2-yl)ethyl)cyclobutyl)homoserine], the IC50 was less than 50 nM.

As to `CC(C)(C)OC(=O)N1CC(C(=O)N[C@@H](CCO[C@H]2C[C@H](CCc3ccc4c(n3)NCCC4)C2)C(=O)O)C1` [Compound 173, N-(1-(tert-butoxycarbonyl)azetidine-3-carbonyl)-O-(trans-3-(2-(5,6,7,8-tetrahydro-1,8-naphthyridin-2-yl)ethyl)cyclobutyl)homoserine], the IC50 is less than 50 nM.

Regarding `O=C(O)[C@H](CCO[C@H]1C[C@H](CCc2ccc3c(n2)NCCC3)C1)NC(=O)C1(C(F)(F)F)CCOCC1` [Compound 174, O-(trans-3-(2-(5,6,7,8-tetrahydro-1,8-naphthyridin-2-yl)ethyl)cyclobutyl)-N-(4-(trifluoromethyl)tetrahydro-2H-pyran-4-carbonyl)homoserine], the IC50 is less than 50 nM.

With `Cc1cc(F)cc(C)c1C(=O)NC(CCOC1CC(CCc2ccc3c(n2)NCCC3)C1)C(=O)O` (centres unmarked) [Compound 175], the IC50 is less than 50 nM.

Take `CC1(C(=O)N[C@@H](CCO[C@H]2C[C@@H](CCc3ccc4c(n3)NCCC4)C2)C(=O)O)CCOCC1` [Compound 179, N-(4-methyltetrahydro-2H-pyran-4-carbonyl)-O-(cis-3-(2-(5,6,7,8-tetrahydro-1,8-naphthyridin-2-yl)ethyl)cyclobutyl) homoserine]: the IC50 fell in the range of 50 to 250 nM.

For `CCC1(C(=O)N[C@@H](CCO[C@H]2C[C@H](CCc3ccc4c(n3)NCCC4)C2)C(=O)O)CCC(F)(F)CC1` [Compound 181, N-(1-ethyl-4,4-difluorocyclohexane-1-carbonyl)-O-(trans-3-(2-(5,6,7,8-tetrahydro-1,8-naphthyridin-2-yl)ethyl)cyclobutyl)homoserine], the IC50 was less than 50 nM.

For `Cc1ccc2c(c1)N(C(=O)C1(C(=O)N[C@@H](CCO[C@H]3C[C@H](CCc4ccc5c(n4)NCCC5)C3)C(=O)O)CC1)CC2` [Compound 182, N-(1-(6-methylindoline-1-carbonyl)cyclopropane-1-carbonyl)-O-(trans-3-(2-(5,6,7,8-tetrahydro-1,8-naphthyridin-2-yl)ethyl)cyclobutyl)homoserine], the IC50 lay in the range of 50 to 250 nM.
